≈ marks a conversion by molar mass, not a printed value. Where two headings read alike, the source gives them in different places.
What was measured:
hyperuricemic mice = experiment: Action of lowering serum uric acid levels for hyperuricemic mice (potassium oxonate model); assay type: in vivo, BALBc mice; conditions: 1 mg/kg orally; FIG. 2
Procedure: As to the animals used, male 7-week old BALBc mice were purchased from CLEA Japan, Inc., and subjected to an experiment after a one-week period of conditioning. The animals were bred in a breeding room with air-conditioning facilities (temperature: 23.5°±1.0° C., humidity: 55±10 RH %, the number of ventilation: 12 to 15 times/hour, illuminated: from 7:00 to 19:00 each day). During the period of conditioning, the mice were allowed to take a commercially available feed (CE-2, manufactured by CLEA Japan, Inc.) and distilled water ad libitum.
Oxonic acid is a substance that raises a blood uric acid level by inhibiting a urikase, a metabolic enzyme for uric acid. In view of the above, potassium oxonate (PO) was administered, thereby generating hyperuricemic model animals (see, Planta Med 2009; 75:302-306). Studies were made on the following 6 groups:
In all the groups that include PO administration, PO previously suspended in a 0.5% aqueous CMC-Na solution at 250 mg/kg was administered, and Normal Group was administered with a 0.5% aqueous CMC-Na solution, each being administered intraperitoneally. […] After 2 hours from the administration with PO, the blood was collected from the abdominal vena cava under anesthesia. After blood removal, the liver was harvested. The collected blood was allowed to stand at room temperature for 45 minutes, and centrifuged at 8,000 rpm for 10 minutes to recover sera. Here, the sera and the liver were preserved at −80° C. until the measurements were carried out.
The serum uric acid level was measured using 7180 Clinical Analyzer (manufactured by Hitachi Technologies).
The actions of lowering serum uric acid levels of soybean peptide heat-treated products were studied using hyperuricemic model animals, in the same manner as in Test Example 2. Concretely, the animals used were furnished in the same manner as in Test Example 2, and studies were made on the following 5 groups.
For each of the above-mentioned groups, the administration and the blood collection were carried out in the same manner as in Test Example 2 to measure a serum uric acid level. […]
Here, the heat-treated product of the soybean peptide obtained by dissolving a soybean peptide (Hinute AM, manufactured by FUJI OIL, CO., LTD.) in distilled water in a concentration of 200 mg/mL, heating to 132° C. for 3 hours, and lyophilizing the heated mixture was used. The content of the cyclic dipeptide of the soybean peptide heat-treated product was measured according to LC-MS/MS under the following conditions. […]

xanthine oxidase (XO) = experiment: In vitro xanthine oxidase (XO) inhibiting action; assay type: biochemical; conditions: for IC50: PBS pH 7.5, xanthine substrate, absorbance at 295 nm after 30 minutes, mean±standard error; for Inhibition Rate (%) at Concentration of 100 μM: Table 2, XO inhibition at 100 μM; for action of inhibiting a xanthine oxidase (in words): summary of Tables 1 to 3
Procedure: The in vitro xanthine oxidase (XO) inhibiting action was studied on 210 kinds of cyclic dipeptides, linear dipeptides Tyr-Gly and Gly-Tyr, and an amino acid Tyr. […] Thereafter, 20 μL of a 250 μM xanthine solution previously dissolved in the PBS was added thereto, and the absorbance after 30 minutes was measured using a spectrophotometer (Synegy HT, manufactured by Bio Tek). The XO inhibition rate (%) at each concentration was calculated by the following calculation formula, to obtain activities of inhibiting XO (IC50 values).

Solubility in water = assay type: physicochemical; conditions: Table 5; for Solubility in Water: distilled water, 25° C., ultrasonication 30 minutes, visual examination, tested at 5, 1, 0.1, 0.01 mM, insoluble = not dissolved at 0.01 mM
Procedure: Concretely, each compound was added to distilled water (manufactured by Otsuka Pharmaceutical Co., Ltd.) at an ambient temperature (25° C.) so as to have a final concentration of 5 mM, and the mixture was stirred under ultrasonication for 30 minutes to dissolve. […] However, none of the compounds dissolved, so that distilled water was further added thereto so as to have a final concentration of 0.01 mM, and the mixture was stirred under ultrasonication for 30 minutes, but still no compounds dissolved.

[1] = Table 3, read-out: IC50 (Activity of Inhibiting XO of Phe-Containing Cyclic Dipeptides)
[2] = Table 1, read-out: IC50 (Activity of Inhibiting XO of Tyr-Containing Cyclic Dipeptides)

Oc1ncnc2[nH]ncc12 [Allopurinol, reference compound]
serum uric acid level vs PO Group (hyperuricemic mice): significant difference in effects on the PO Group

CC1NC(=O)C(Cc2ccccc2)NC1=O (centres unmarked) [Cyclo(Ala-Phe), reference compound]
IC50 (xanthine oxidase (XO); [1]): > 100 µM

CC1NC(=O)C(Cc2ccc(O)cc2)NC1=O (centres unmarked) [Cyclo(Ala-Tyr), cycloalanyltyrosine]
Inhibition Rate (%) at Concentration of 100 μM (xanthine oxidase (XO)): 8.3%
Solubility in Water (Solubility in water): insoluble

N=C(N)NCCCC1NC(=O)C(Cc2ccccc2)NC1=O (centres unmarked) [Cyclo(Arg-Phe), reference compound]
IC50 (xanthine oxidase (XO); [1]): > 300 µM

N=C(N)NCCCC1NC(=O)C(Cc2ccc(O)cc2)NC1=O (centres unmarked) [Cyclo(Arg-Tyr), cycloarginyltyrosine]
IC50 (xanthine oxidase (XO); [2]): 211 µM
solubility in water (in words) (Solubility in water): high solubility in water
Solubility in Water (Solubility in water): 5000 µM (≈ 1600 µg/mL)

NC(=O)CC1NC(=O)C(Cc2ccccc2)NC1=O (centres unmarked) [Cyclo(Asn-Phe), reference compound]
IC50 (xanthine oxidase (XO); [1]): > 300 µM

NC(=O)C[C@@H]1NC(=O)[C@H](Cc2ccc(O)cc2)NC1=O [Cyclo(Asn-Tyr), cycloasparaginyltyrosine]
IC50 (xanthine oxidase (XO); [2]): 113 µM
solubility in water (in words) (Solubility in water): high solubility in water
Solubility in Water (Solubility in water): 1000 µM (≈ 277 µg/mL)

O=C(O)CC1NC(=O)C(Cc2ccccc2)NC1=O (centres unmarked) [Cyclo(Asp-Phe), reference compound]
IC50 (xanthine oxidase (XO); [1]): > 300 µM

O=C(O)C[C@@H]1NC(=O)[C@H](Cc2ccc(O)cc2)NC1=O [Cyclo(Asp-Tyr), cycloaspartyltyrosine]
IC50 (xanthine oxidase (XO); [2]): 172 µM
solubility in water (in words) (Solubility in water): high solubility in water
Solubility in Water (Solubility in water): 5000 µM (≈ 1390 µg/mL)

NC(=O)CCC1NC(=O)C(Cc2ccccc2)NC1=O (centres unmarked) [Cyclo(Gln-Phe), reference compound]
IC50 (xanthine oxidase (XO); [1]): > 300 µM

NC(=O)CC[C@@H]1NC(=O)[C@H](Cc2ccc(O)cc2)NC1=O [Cyclo(Gln-Tyr), cycloglutaminyltyrosine]
Inhibition Rate (%) at Concentration of 100 μM (xanthine oxidase (XO)): 42.6%
solubility in water (in words) (Solubility in water): high solubility in water
Solubility in Water (Solubility in water): 1000 µM (≈ 291 µg/mL)

O=C(O)CCC1NC(=O)C(Cc2ccccc2)NC1=O (centres unmarked) [Cyclo(Glu-Phe), reference compound]
IC50 (xanthine oxidase (XO); [1]): > 100 µM

O=C(O)CC[C@@H]1NC(=O)[C@H](Cc2ccc(O)cc2)NC1=O [Cyclo(Glu-Tyr), cycloglutamyltyrosine]
Inhibition Rate (%) at Concentration of 100 μM (xanthine oxidase (XO)): 0.4%
solubility in water (in words) (Solubility in water): high solubility in water
Solubility in Water (Solubility in water): 5000 µM (≈ 1460 µg/mL)

O=C1NC(Cc2cnc[nH]2)C(=O)NC1Cc1ccccc1 (centres unmarked) [Cyclo(His-Phe), reference compound]
IC50 (xanthine oxidase (XO); [1]): > 100 µM

O=C1N[C@@H](Cc2c[nH]cn2)C(=O)N[C@H]1Cc1ccc(O)cc1 [Cyclo(His-Tyr), cyclohistidyltyrosine]
Inhibition Rate (%) at Concentration of 100 μM (xanthine oxidase (XO)): 3.2%
solubility in water (in words) (Solubility in water): high solubility in water
Solubility in Water (Solubility in water): 1000 µM (≈ 300 µg/mL)

CCC(C)C1NC(=O)C(Cc2ccccc2)NC1=O (centres unmarked) [Cyclo(Ile-Phe), reference compound]
IC50 (xanthine oxidase (XO); [1]): > 100 µM

CCC(C)C1NC(=O)C(Cc2ccc(O)cc2)NC1=O (centres unmarked) [Cyclo(Ile-Tyr), cycloisoleucyltyrosine]
IC50 (xanthine oxidase (XO); [2]): 86.7 ± 2.8 µM
solubility in water (in words) (Solubility in water): high solubility in water
Solubility in Water (Solubility in water): 1000 µM (≈ 276 µg/mL)

CC(C)CC1NC(=O)C(Cc2ccccc2)NC1=O (centres unmarked) [Cyclo(Leu-Phe), reference compound]
IC50 (xanthine oxidase (XO); [1]): > 100 µM

NCCCCC1NC(=O)C(Cc2ccccc2)NC1=O (centres unmarked) [Cyclo(Lys-Phe), reference compound]
IC50 (xanthine oxidase (XO); [1]): > 300 µM

NCCCC[C@@H]1NC(=O)[C@H](Cc2ccc(O)cc2)NC1=O [Cyclo(Lys-Tyr), cyclolysyltyrosine]
Inhibition Rate (%) at Concentration of 100 μM (xanthine oxidase (XO)): 25.7%
solubility in water (in words) (Solubility in water): high solubility in water
Solubility in Water (Solubility in water): 5000 µM (≈ 1460 µg/mL)

CSCCC1NC(=O)C(Cc2ccccc2)NC1=O (centres unmarked) [Cyclo(Met-Phe), reference compound]
IC50 (xanthine oxidase (XO); [1]): > 100 µM

CSCCC1NC(=O)C(Cc2ccc(O)cc2)NC1=O (centres unmarked) [Cyclo(Met-Tyr), cyclomethionyltyrosine]
IC50 (xanthine oxidase (XO); [2]): 56.4 ± 2.9 µM
solubility in water (in words) (Solubility in water): high solubility in water
Solubility in Water (Solubility in water): 5000 µM (≈ 1470 µg/mL)

O=C1NC(Cc2ccccc2)C(=O)NC1CS (centres unmarked) [Cyclo(Phe-Cys), reference compound]
IC50 (xanthine oxidase (XO); [1]): 133 ± 25.2 µM

O=C1CNC(=O)C(Cc2ccccc2)N1 (centres unmarked) [Cyclo(Phe-Gly), reference compound]
IC50 (xanthine oxidase (XO); [1]): > 100 µM

O=C1NC(Cc2ccccc2)C(=O)NC1Cc1ccccc1 (centres unmarked) [Cyclo(Phe-Phe), reference compound]
IC50 (xanthine oxidase (XO); [1]): > 100 µM

O=C1N[C@@H](Cc2ccc(O)cc2)C(=O)N[C@H]1Cc1ccccc1 [Cyclo(Phe-Tyr), cyclophenylalanyltyrosine]
IC50 (xanthine oxidase (XO); [2]): 22.2 ± 0.8 µM
IC50 (xanthine oxidase (XO); [1]): 22.2 ± 0.8 µM
action of inhibiting a xanthine oxidase (in words) (xanthine oxidase (XO)): high action of inhibiting a xanthine oxidase
Solubility in Water (Solubility in water): insoluble

O=C1NC(Cc2ccccc2)C(=O)N2CCCC12 (centres unmarked) [Cyclo(Pro-Phe), reference compound]
IC50 (xanthine oxidase (XO); [1]): > 100 µM

O=C1N[C@@H](Cc2ccc(O)cc2)C(=O)N2CCC[C@@H]12 [Cyclo(Pro-Tyr), cycloprolyltyrosine]
Inhibition Rate (%) at Concentration of 100 μM (xanthine oxidase (XO)): 2.3%
solubility in water (in words) (Solubility in water): high solubility in water
Solubility in Water (Solubility in water): 1000 µM (≈ 260 µg/mL)

O=C1NC(Cc2ccccc2)C(=O)NC1CO (centres unmarked) [Cyclo(Ser-Phe), reference compound]
IC50 (xanthine oxidase (XO); [1]): > 300 µM

O=C1NC(Cc2ccc(O)cc2)C(=O)NC1CO (centres unmarked) [Cyclo(Ser-Tyr), cycloseryltyrosine]
IC50 (xanthine oxidase (XO); [2]): 189 ± 52.5 µM
Solubility in Water (Solubility in water): insoluble

CC(O)C1NC(=O)C(Cc2ccccc2)NC1=O (centres unmarked) [Cyclo(Thr-Phe), reference compound]
IC50 (xanthine oxidase (XO); [1]): > 300 µM

C[C@@H](O)[C@@H]1NC(=O)[C@H](Cc2ccc(O)cc2)NC1=O [Cyclo(Thr-Tyr), cyclothreonyltyrosine]
Inhibition Rate (%) at Concentration of 100 μM (xanthine oxidase (XO)): 2.6%
solubility in water (in words) (Solubility in water): high solubility in water
Solubility in Water (Solubility in water): 1000 µM (≈ 264 µg/mL)

O=C1NC(Cc2c[nH]c3ccccc23)C(=O)NC1Cc1ccccc1 (centres unmarked) [Cyclo(Trp-Phe), reference compound]
IC50 (xanthine oxidase (XO); [1]): > 100 µM

O=C1N[C@@H](Cc2ccc(O)cc2)C(=O)N[C@H]1Cc1ccc(O)cc1 [Cyclo(Tyr-Tyr), cyclotyrosyltyrosine]
IC50 (xanthine oxidase (XO); [2]): 29.5 ± 2.9 µM
action of inhibiting a xanthine oxidase (in words) (xanthine oxidase (XO)): high action of inhibiting a xanthine oxidase
Solubility in Water (Solubility in water): insoluble

CC(C)C1NC(=O)C(Cc2ccccc2)NC1=O (centres unmarked) [Cyclo(Val-Phe), reference compound]
IC50 (xanthine oxidase (XO); [1]): 60.5 ± 2.4 µM

CC(C)C1NC(=O)C(Cc2ccc(O)cc2)NC1=O (centres unmarked) [Cyclo(Val-Tyr), cyclovalyltyrosine]
IC50 (xanthine oxidase (XO); [2]): 79.4 ± 16.1 µM
Solubility in Water (Solubility in water): insoluble

cycloleucyltyrosine [Cyclo(Leu-Tyr)]
IC50 (xanthine oxidase (XO); [2]): 23.8 ± 5.3 µM
action of inhibiting a xanthine oxidase (in words) (xanthine oxidase (XO)): high action of inhibiting a xanthine oxidase
Solubility in Water (Solubility in water): insoluble

cyclotryptophanyltyrosine [Cyclo(Trp-Tyr)]
Inhibition Rate (%) at Concentration of 100 μM (xanthine oxidase (XO)): 19.1%
Solubility in Water (Solubility in water): insoluble

— US20170129919A1, “CYCLIC DIPEPTIDE-CONTAINING COMPOSITION” (Suntory Holdings Limited, priority 2014, published 2017)
